Measured values published in patent US5403726A, “Enzymatic process for producing a galactosylβ1,3glycal disaccaride using β-galactosidase” (priority 1992, dated 1995).

Target: β-galactosidase (E. coli) (Escherichia coli, UniProt P00722)
Assay: β-galactosidase-mediated coupling reaction with glycal as potential acceptor
Assay type: biochemical
Conditions: donor GalβpNO2 Ph (Compound 1); no reaction product
Description: To increase the yield of disaccharide, activated donors were used illustratively here in the kinetic method of glycosidic bond formation. [Nilsson, I. Trends Biotechnol., 6:256 (1988) and the citations therein]. Disaccharide formation was initially examined using commercially available E. coli β-galactosidase [EC 3.2.1.23] and 4-nitrophenyl β-galactopyranoside (Compound 1) as the galactose donor and glucal (Compound 2) [Hodgson, Biotechnology, 9:609 (1991)] as the acceptor. The reaction was monitored by thin layer chromatograph (TLC). After no additional nitrophenyl galactoside appeared to be consumed (19-26 hours), the reaction was terminated.
In a typical procedure, Compound 1 (77 mg, 0.26 mmol) and […] (54 mg, 0.36 mmol) were combined at 25° C. with E. coli β-galactosidase (75 units) in 4 mL of a 0.07 M PIPES/0.2M NaOAc/0.1M EDTA solution at pH 6.5. The progress of the reaction was monitored by TLC (silica gel, 7:2:1 iPrOH--NH4 OH--H2 O). After 26 hours, the solvent was removed in vacuo and the residue treated with acetic anhydride (2 mL) and pyridine (2 mL). After an additional 12 hours, the mixture was concentrated in vacuo and the residue purified by silica gel chromatography (2:3 ethyl acetate-hexanes) to afford a 2.3:1 mixture of β-1,3 and β-1,6 isomers (72 mg, 50 percent). […] The position of the glycoside linkage was unambiguously determined by ^1 H NMR decoupling studies. […]

β-galactosidase (E. coli), sequence (P00722 whole entry): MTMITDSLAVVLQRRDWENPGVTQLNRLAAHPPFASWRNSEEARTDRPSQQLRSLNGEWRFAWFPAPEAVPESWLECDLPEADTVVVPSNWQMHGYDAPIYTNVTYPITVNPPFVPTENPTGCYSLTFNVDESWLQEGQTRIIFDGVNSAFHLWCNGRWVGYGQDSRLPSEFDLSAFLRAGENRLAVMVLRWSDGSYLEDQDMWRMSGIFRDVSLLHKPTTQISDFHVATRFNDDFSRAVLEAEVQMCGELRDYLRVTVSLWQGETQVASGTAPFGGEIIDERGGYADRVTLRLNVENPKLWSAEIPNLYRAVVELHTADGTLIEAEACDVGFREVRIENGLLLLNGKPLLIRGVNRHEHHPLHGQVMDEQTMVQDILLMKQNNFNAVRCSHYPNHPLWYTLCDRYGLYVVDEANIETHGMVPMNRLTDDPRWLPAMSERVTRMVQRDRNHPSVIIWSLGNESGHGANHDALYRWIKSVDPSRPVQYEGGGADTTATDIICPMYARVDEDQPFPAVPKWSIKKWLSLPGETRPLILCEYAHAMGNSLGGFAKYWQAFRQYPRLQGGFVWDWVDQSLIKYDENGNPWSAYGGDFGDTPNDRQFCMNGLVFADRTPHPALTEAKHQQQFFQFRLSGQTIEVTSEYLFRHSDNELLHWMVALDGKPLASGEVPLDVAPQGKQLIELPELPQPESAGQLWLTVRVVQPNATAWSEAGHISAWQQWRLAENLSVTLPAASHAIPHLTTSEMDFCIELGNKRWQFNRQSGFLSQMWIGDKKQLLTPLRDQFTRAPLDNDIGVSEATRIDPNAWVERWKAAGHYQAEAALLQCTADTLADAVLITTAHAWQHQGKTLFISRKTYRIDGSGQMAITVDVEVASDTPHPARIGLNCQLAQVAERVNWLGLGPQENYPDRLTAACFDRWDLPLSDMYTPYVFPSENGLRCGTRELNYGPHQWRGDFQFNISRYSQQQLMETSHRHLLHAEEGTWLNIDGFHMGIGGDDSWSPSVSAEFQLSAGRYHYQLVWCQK

OC[C@H]1OC=C[C@@H](O)[C@H]1O [Galactal]
behaviour as potential acceptor in the β-galactosidase coupling reaction (inhibitor): acted as an inhibitor
